In patent US20260285850A1, “SUBSTITUTED OXAZOLIDINONES AND IMIDAZOLINONES AS HERBICIDES” (FMC CORPORATION, priority 2023, published 2026):

Key:
Type in all cases: in vivo
rice (Oryza sativa) = assay: Test B flooded paddy test, visual plant response rating 0-100; details: 250 g ai/ha, Flood, applied to paddy water, evaluated after 13 days
Summary of the method: (§1)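 Greenhouse, 13 d. Seedlings at 2-leaf stage, pots flooded to 3 cm, compound delivered into floodwater, water level held constant. Evaluated visually relative to controls.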

[1] = system: sedge, umbrella (small-flower umbrella sedge, Cyperus difformis); assay: as above; details: 250 g ai/ha, Flood, applied to paddy water, evaluated after 13 days
Summary of the method: as §1

[2] = system: ducksalad (Heteranthera limosa); assay: as above; details: 250 g ai/ha, Flood, applied to paddy water, evaluated after 13 days
Summary of the method: as §1

[3] = system: barnyardgrass (Echinochloa crusgalli); assay: as above; details: 250 g ai/ha, Flood, applied to paddy water, evaluated after 13 days
Summary of the method: as §1

[4] = system: blackgrass (Alopecurus myosuroides); assay: Test A postemergence application, visual injury rating 0-100; details: for Blackgrass plant response rating (0 to 100 scale): Postemergence
Summary of the method: (§2)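 Preemergence directed soil spray or postemergence spray (2-10 cm, 1-2 leaf); loam/sand mix; compound in non-phytotoxic solvent + surfactant. Greenhouse, 10 d. Visual injury vs untreated, 0 = none, 100 = complete control.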

[5] = system: ryegrass, Italian (italian ryegrass, Lolium multiflorum); assay: as above; details: for Ryegrass, Italian plant response rating (0 to 100 scale): Postemergence
Summary of the method: as §2

[6] = system: oat, wild (wild oat, Avena fatua); assay: as above; details: for Oat, Wild plant response rating (0 to 100 scale): Postemergence
Summary of the method: as §2

corn (Zea mays) [7] = assay: as above; details: for Corn plant response rating (0 to 100 scale): Postemergence
Summary of the method: as §2

[8] = system: horseweed (Erigeron canadensis); assay: as above; details: for Horseweed plant response rating (0 to 100 scale): Postemergence
Summary of the method: as §2

[9] = system: barnyardgrass (Echinochloa crus-galli); assay: as above; details: for Barnyardgrass plant response rating (0 to 100 scale): Postemergence
Summary of the method: as §2

[10] = system: green foxtail (Setaria viridis); assay: as above; details: for Foxtail, Green plant response rating (0 to 100 scale): Postemergence
Summary of the method: as §2

soybean (Glycine max) [11] = assay: as above; details: for Soybean plant response rating (0 to 100 scale): Postemergence
Summary of the method: as §2

[12] = system: ragweed (common ragweed, Ambrosia artemisiifolia); assay: as above; details: for Ragweed plant response rating (0 to 100 scale): Postemergence
Summary of the method: as §2

[13] = system: galium (catchweed bedstraw, Galium aparine); assay: as above; details: for Galium plant response rating (0 to 100 scale): Postemergence
Summary of the method: as §2

[14] = system: wheat (Triticum aestivum); assay: as above; details: for Wheat plant response rating (0 to 100 scale): Postemergence
Summary of the method: as §2

kochia (Bassia scoparia) [15] = assay: as above; details: for Kochia plant response rating (0 to 100 scale): Postemergence
Summary of the method: as §2

[16] = system: palmer (palmer amaranth, palmer pigweed, Amaranthus palmeri); assay: as above; details: for Amaranth, Palmer / Pigweed, Palmer plant response rating (0 to 100 scale): 0 is no effect, 100 is complete control
Summary of the method: as §2

[17] = system: blackgrass (Alopecurus myosuroides); assay: Test A preemergence soil spray, visual injury rating 0-100; details: 10 days
Summary of the method: as §2

[18] = system: ryegrass, Italian (italian ryegrass, Lolium multiflorum); assay: as above; details: 10 days
Summary of the method: as §2

[19] = system: oat, wild (wild oat, Avena fatua); assay: as above; details: 10 days
Summary of the method: as §2

corn (Zea mays) [20] = assay: as above; details: 10 days
Summary of the method: as §2

[21] = system: barnyardgrass (Echinochloa crus-galli); assay: as above; details: 10 days
Summary of the method: as §2

[22] = system: green foxtail (Setaria viridis); assay: as above; details: 10 days
Summary of the method: as §2

soybean (Glycine max) [23] = assay: as above; details: 10 days
Summary of the method: as §2

[24] = system: ragweed (common ragweed, Ambrosia artemisiifolia); assay: as above; details: 10 days
Summary of the method: as §2

[25] = system: wheat (Triticum aestivum); assay: as above; details: 10 days
Summary of the method: as §2

kochia (Bassia scoparia) [26] = assay: as above; details: 10 days
Summary of the method: as §2

[27] = system: palmer (palmer amaranth, palmer pigweed, Amaranthus palmeri); assay: as above; details: 10 days
Summary of the method: as §2

[28] = 62 g ai/ha, postemergence, 10 days, 0 = no effect, 100 = complete control
[29] = 16 g ai/ha, greenhouse 10 days, 0 no effect, 100 complete control
[30] = 62 g ai/ha, 0 = no effect, 100 = complete control
[31] = 125 g ai/ha, 10 days, 0 is no effect, 100 is complete control
[32] = 500 g ai/ha, 10 days, 0 is no effect, 100 is complete control
[33] = 125 g ai/ha, 0 = no effect, 100 = complete control
[34] = 500 g ai/ha, 0 = no effect, 100 = complete control

C=CC1(C(=O)NC2CC(C(=O)OC)C2)CN(c2cc(F)cc(F)c2)C(=O)O1 (centres unmarked) [Compound 174]
Plant response rating, Rice (0 to 100 scale, 0 is no effect and 100 is complete control) (rice (Oryza sativa)): 0 | Plant response rating, Sedge, Umbrella (0 to 100 scale, 0 is no effect and 100 is complete control) [1]: 0 | Plant response rating, Ducksalad (0 to 100 scale, 0 is no effect and 100 is complete control) [2]: 0 | Plant response rating, Barnyardgrass (0 to 100 scale, 0 is no effect and 100 is complete control) [3]: 0 | Blackgrass plant response rating (0-100) [4, 28]: 0 | Blackgrass plant response rating (0 to 100 scale) [4, 29]: 0 | Ryegrass, Italian plant response rating (0-100) [5, 28]: 0 | Ryegrass, Italian plant response rating (0 to 100 scale) [5, 29]: 0 | Oat, Wild plant response rating (0-100) [6, 28]: 0 | Oat, Wild plant response rating (0 to 100 scale) [6, 29]: 0 | Corn plant response rating (0-100) (corn (Zea mays) [7]; [28]): 0 | Corn plant response rating (0 to 100 scale) (corn (Zea mays) [7]; [29]): 0 | Horseweed plant response rating (0-100) [8, 28]: 0 | Horseweed plant response rating (0 to 100 scale) [8, 29]: 0 | Barnyardgrass plant response rating (0-100) [9, 28]: 20 | Barnyardgrass plant response rating (0 to 100 scale) [9, 29]: 10 | Foxtail, Green plant response rating (0-100) [10, 28]: 0 | Foxtail, Green plant response rating (0 to 100 scale) [10, 29]: 0 | Soybean plant response rating (0-100) (soybean (Glycine max) [11]; [28]): 0 | Soybean plant response rating (0 to 100 scale) (soybean (Glycine max) [11]; [29]): 0 | Ragweed plant response rating (0-100) [12, 28]: 0 | Ragweed plant response rating (0 to 100 scale) [12, 29]: 0 | Galium plant response rating (0-100) [13, 28]: 0 | Galium plant response rating (0 to 100 scale) [13, 29]: 0 | Wheat plant response rating (0-100) [14, 28]: 0 | Wheat plant response rating (0 to 100 scale) [14, 29]: 0 | Kochia plant response rating (0-100) (kochia (Bassia scoparia) [15]; [28]): 0 | Kochia plant response rating (0 to 100 scale) (kochia (Bassia scoparia) [15]; [29]): 0 | Pigweed, Palmer plant response rating (0-100) [16, 28]: 0 | Pigweed, Palmer plant response rating (0 to 100 scale) ([16]; Postemergence, 16 g ai/ha, greenhouse 10 days, 0 no effect, 100 complete control): 0 | Blackgrass plant response rating ([17]; 16 g ai/ha, 0 to 100 scale): 0 | Blackgrass plant response rating (0-100) [17, 30]: 0 | Ryegrass, Italian plant response rating ([18]; 16 g ai/ha, 0 to 100 scale): 0 | Ryegrass, Italian plant response rating (0-100) [18, 30]: 0 | Oat, Wild plant response rating ([19]; 16 g ai/ha, 0 to 100 scale): 0 | Oat, Wild plant response rating (0-100) [19, 30]: 0 | Corn plant response rating (corn (Zea mays) [20]; 16 g ai/ha, 0 to 100 scale): 0 | Corn plant response rating (0-100) (corn (Zea mays) [20]; [30]): 0 | Barnyardgrass plant response rating ([21]; 16 g ai/ha, 0 to 100 scale): 0 | Barnyardgrass plant response rating (0-100) [21, 30]: 0 | Foxtail, Green plant response rating ([22]; 16 g ai/ha, 0 to 100 scale): 0 | Foxtail, Green plant response rating (0-100) [22, 30]: 0 | Soybean plant response rating (soybean (Glycine max) [23]; 16 g ai/ha, 0 to 100 scale): 0 | Soybean plant response rating (0-100) (soybean (Glycine max) [23]; [30]): 0 | Ragweed plant response rating ([24]; 16 g ai/ha, 0 to 100 scale): 0 | Ragweed plant response rating (0-100) [24, 30]: 0 | Wheat plant response rating ([25]; 16 g ai/ha, 0 to 100 scale): 0 | Wheat plant response rating (0-100) [25, 30]: 0 | Kochia plant response rating (kochia (Bassia scoparia) [26]; 16 g ai/ha, 0 to 100 scale): 0 | Kochia plant response rating (0-100) (kochia (Bassia scoparia) [26]; [30]): 0 | Pigweed, Palmer plant response rating ([27]; 16 g ai/ha, 0 to 100 scale): 0 | Pigweed, Palmer plant response rating (0-100) [27, 30]: 0

CC(C)OC(=O)C1C=CC(NC(=O)C2(C)CN(c3cc(Cl)cc(Cl)c3)C(=O)O2)C1 (centres unmarked) [Compound 43]
Plant response rating, Rice (0 to 100 scale, 0 is no effect and 100 is complete control) (rice (Oryza sativa)): 20 | Plant response rating, Sedge, Umbrella (0 to 100 scale, 0 is no effect and 100 is complete control) [1]: 95 | Plant response rating, Ducksalad (0 to 100 scale, 0 is no effect and 100 is complete control) [2]: 90 | Plant response rating, Barnyardgrass (0 to 100 scale, 0 is no effect and 100 is complete control) [3]: 85 | Blackgrass plant response rating (0 to 100 scale) [4, 31]: 100 | Blackgrass plant response rating (0 to 100 scale) [4, 32]: 100 | Ryegrass, Italian plant response rating (0 to 100 scale) [5, 31]: 90 | Ryegrass, Italian plant response rating (0 to 100 scale) [5, 32]: 90 | Oat, Wild plant response rating (0 to 100 scale) [6, 31]: 90 | Oat, Wild plant response rating (0 to 100 scale) [6, 32]: 90 | Corn plant response rating (0 to 100 scale) (corn (Zea mays) [7]; [31]): 100 | Corn plant response rating (0 to 100 scale) (corn (Zea mays) [7]; [32]): 100 | Horseweed plant response rating (0 to 100 scale) [8, 31]: 60 | Horseweed plant response rating (0 to 100 scale) [8, 32]: 80 | Barnyardgrass plant response rating (0 to 100 scale) [9, 31]: 100 | Barnyardgrass plant response rating (0 to 100 scale) [9, 32]: 100 | Foxtail, Green plant response rating (0 to 100 scale) [10, 31]: 90 | Foxtail, Green plant response rating (0 to 100 scale) [10, 32]: 90 | Soybean plant response rating (0 to 100 scale) (soybean (Glycine max) [11]; [31]): 80 | Soybean plant response rating (0 to 100 scale) (soybean (Glycine max) [11]; [32]): 80 | Ragweed plant response rating (0 to 100 scale) [12, 31]: 60 | Ragweed plant response rating (0 to 100 scale) [12, 32]: 80 | Galium plant response rating (0 to 100 scale) [13, 31]: 70 | Galium plant response rating (0 to 100 scale) [13, 32]: 70 | Wheat plant response rating (0 to 100 scale) [14, 31]: 90 | Wheat plant response rating (0 to 100 scale) [14, 32]: 90 | Kochia plant response rating (0 to 100 scale) (kochia (Bassia scoparia) [15]; [31]): 80 | Kochia plant response rating (0 to 100 scale) (kochia (Bassia scoparia) [15]; [32]): 80 | Amaranth, Palmer / Pigweed, Palmer plant response rating (0 to 100 scale) ([16]; Postemergence, 125 g ai/ha, 10 days): 100 | Amaranth, Palmer / Pigweed, Palmer plant response rating (0 to 100 scale) ([16]; Postemergence, 500 g ai/ha, 10 days): 100 | Blackgrass plant response rating (0 to 100 scale) [17, 33]: 90 | Blackgrass plant response rating (0 to 100 scale) [17, 34]: 100 | Ryegrass, Italian plant response rating (0 to 100 scale) [18, 33]: 90 | Ryegrass, Italian plant response rating (0 to 100 scale) [18, 34]: 90 | Oat, Wild plant response rating (0 to 100 scale) [19, 33]: 90 | Oat, Wild plant response rating (0 to 100 scale) [19, 34]: 90 | Corn plant response rating (0 to 100 scale) (corn (Zea mays) [20]; [33]): 80 | Corn plant response rating (0 to 100 scale) (corn (Zea mays) [20]; [34]): 90 | Barnyardgrass plant response rating (0 to 100 scale) [21, 33]: 100 | Barnyardgrass plant response rating (0 to 100 scale) [21, 34]: 100 | Foxtail, Green plant response rating (0 to 100 scale) [22, 33]: 90 | Foxtail, Green plant response rating (0 to 100 scale) [22, 34]: 100 | Soybean plant response rating (0 to 100 scale) (soybean (Glycine max) [23]; [33]): 40 | Soybean plant response rating (0 to 100 scale) (soybean (Glycine max) [23]; [34]): 60 | Ragweed plant response rating (0 to 100 scale) [24, 33]: 30 | Ragweed plant response rating (0 to 100 scale) [24, 34]: 80 | Wheat plant response rating (0 to 100 scale) [25, 33]: 90 | Wheat plant response rating (0 to 100 scale) [25, 34]: 90 | Kochia plant response rating (0 to 100 scale) (kochia (Bassia scoparia) [26]; [33]): 80 | Kochia plant response rating (0 to 100 scale) (kochia (Bassia scoparia) [26]; [34]): 90 | Amaranth, Palmer plant response rating (0 to 100 scale) [27, 33]: 100 | Amaranth, Palmer plant response rating (0 to 100 scale) [27, 34]: 100
